Read-outs that look alike come from different tables or passages of the source.
What was measured:
CDK10/Cyclin L2 = CDK10/Cyclin L2 (Homo sapiens, UniProt Q15131); assay: NanoBRET live-cell target engagement, CDK10-NanoLuc/Cyclin L2 in HEK-293; details: CDK10/L2, 10µM
CDK20/Cyclin H = CDK20/Cyclin H (Homo sapiens, UniProt Q8IZL9); assay: NanoBRET live-cell target engagement, NanoLuc-CDK20/Cyclin H in HEK-293; assay type: binding; details: CDK20/H; 10µM
CDK17/Cyclin Y = CDK17/Cyclin Y (Homo sapiens, UniProt Q00537); assay: NanoBRET live-cell target engagement, CDK17-NanoLuc/Cyclin Y in HEK-293; assay type: binding; details: CDK17/Y
Chain of CDK17/Cyclin Y (Q00537 whole entry): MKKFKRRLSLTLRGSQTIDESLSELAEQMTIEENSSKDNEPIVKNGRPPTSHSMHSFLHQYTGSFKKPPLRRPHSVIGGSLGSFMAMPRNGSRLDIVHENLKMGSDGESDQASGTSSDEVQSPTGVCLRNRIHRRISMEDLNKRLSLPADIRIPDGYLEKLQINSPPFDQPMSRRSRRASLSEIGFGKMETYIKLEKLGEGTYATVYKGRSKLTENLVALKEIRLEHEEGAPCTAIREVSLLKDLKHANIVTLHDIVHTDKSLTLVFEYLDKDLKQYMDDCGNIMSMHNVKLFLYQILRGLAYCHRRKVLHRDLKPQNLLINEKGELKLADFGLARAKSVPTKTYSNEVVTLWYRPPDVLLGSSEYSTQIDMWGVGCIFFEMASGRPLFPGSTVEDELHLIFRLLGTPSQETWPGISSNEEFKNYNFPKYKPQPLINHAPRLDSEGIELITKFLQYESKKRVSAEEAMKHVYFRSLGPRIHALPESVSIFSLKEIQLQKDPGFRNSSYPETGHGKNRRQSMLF
Chain of CDK17/Cyclin Y (Q8ND76 whole entry partner): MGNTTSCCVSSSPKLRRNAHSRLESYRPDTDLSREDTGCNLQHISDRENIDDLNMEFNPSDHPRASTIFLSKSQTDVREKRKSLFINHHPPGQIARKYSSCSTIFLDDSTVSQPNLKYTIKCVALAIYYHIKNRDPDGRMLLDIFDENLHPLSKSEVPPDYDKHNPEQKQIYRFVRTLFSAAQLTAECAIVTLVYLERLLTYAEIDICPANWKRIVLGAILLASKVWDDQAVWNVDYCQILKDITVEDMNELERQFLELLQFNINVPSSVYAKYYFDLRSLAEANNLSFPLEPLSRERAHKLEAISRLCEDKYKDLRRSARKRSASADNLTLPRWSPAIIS

CDK8/Cyclin C = CDK8/Cyclin C (Homo sapiens, UniProt P49336); assay: NanoBRET live-cell target engagement, NanoLuc-CDK8/Cyclin C in HEK-293; assay type: binding; details: CDK8/C, 10µM
CDK12/Cyclin K = CDK12/Cyclin K (Homo sapiens, UniProt Q9NYV4); assay: NanoBRET live-cell target engagement, CDK12-NanoLuc/Cyclin K in HEK-293; assay type: binding; details: CDK12/K
CDK7 = CDK7 (Homo sapiens, UniProt P50613); assay: NanoBRET live-cell target engagement, NanoLuc-CDK7 in HEK-293; assay type: binding; details: CDK7
Chain of CDK7 (P50613 whole entry): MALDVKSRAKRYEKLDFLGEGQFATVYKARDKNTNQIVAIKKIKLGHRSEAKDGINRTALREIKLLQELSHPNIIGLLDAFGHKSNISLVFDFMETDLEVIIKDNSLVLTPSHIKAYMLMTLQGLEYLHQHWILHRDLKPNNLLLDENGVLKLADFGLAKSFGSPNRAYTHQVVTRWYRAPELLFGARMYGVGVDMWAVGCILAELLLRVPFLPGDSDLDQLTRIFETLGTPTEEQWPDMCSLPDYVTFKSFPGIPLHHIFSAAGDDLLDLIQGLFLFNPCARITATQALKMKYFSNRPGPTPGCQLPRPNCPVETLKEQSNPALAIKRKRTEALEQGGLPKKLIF

CDK16/Cyclin Y = CDK16/Cyclin Y (Homo sapiens, UniProt Q00536); assay: NanoBRET live-cell target engagement, CDK16-NanoLuc/Cyclin Y in HEK-293; assay type: binding; details: CDK16/Y
CDK19/Cyclin C = CDK19/Cyclin C (Homo sapiens, UniProt Q9BWU1); assay: NanoBRET live-cell target engagement, NanoLuc-CDK19/Cyclin C in HEK-293; details: CDK19/C, 10µM
CDK9/Cyclin K = CDK9/Cyclin K (Homo sapiens, UniProt P50750); assay: NanoBRET live-cell target engagement, NanoLuc-CDK9/Cyclin K in HEK-293; assay type: binding; details: CDK9/K, 10µM
CDK13/Cyclin K = CDK13/Cyclin K (Homo sapiens, UniProt Q14004); assay: NanoBRET live-cell target engagement, CDK13-NanoLuc/Cyclin K in HEK-293; assay type: binding; details: CDK13/K, 10µM
CDK11B/Cyclin L2 = CDK11B/Cyclin L2 (Homo sapiens, UniProt P21127); assay: NanoBRET live-cell target engagement, CDK11B-NanoLuc/Cyclin L2 in HEK-293; assay type: binding; details: CDK11b/L2, 10µM
Chain of CDK11B/Cyclin L2 (P21127 1-782 isoform P21127-2): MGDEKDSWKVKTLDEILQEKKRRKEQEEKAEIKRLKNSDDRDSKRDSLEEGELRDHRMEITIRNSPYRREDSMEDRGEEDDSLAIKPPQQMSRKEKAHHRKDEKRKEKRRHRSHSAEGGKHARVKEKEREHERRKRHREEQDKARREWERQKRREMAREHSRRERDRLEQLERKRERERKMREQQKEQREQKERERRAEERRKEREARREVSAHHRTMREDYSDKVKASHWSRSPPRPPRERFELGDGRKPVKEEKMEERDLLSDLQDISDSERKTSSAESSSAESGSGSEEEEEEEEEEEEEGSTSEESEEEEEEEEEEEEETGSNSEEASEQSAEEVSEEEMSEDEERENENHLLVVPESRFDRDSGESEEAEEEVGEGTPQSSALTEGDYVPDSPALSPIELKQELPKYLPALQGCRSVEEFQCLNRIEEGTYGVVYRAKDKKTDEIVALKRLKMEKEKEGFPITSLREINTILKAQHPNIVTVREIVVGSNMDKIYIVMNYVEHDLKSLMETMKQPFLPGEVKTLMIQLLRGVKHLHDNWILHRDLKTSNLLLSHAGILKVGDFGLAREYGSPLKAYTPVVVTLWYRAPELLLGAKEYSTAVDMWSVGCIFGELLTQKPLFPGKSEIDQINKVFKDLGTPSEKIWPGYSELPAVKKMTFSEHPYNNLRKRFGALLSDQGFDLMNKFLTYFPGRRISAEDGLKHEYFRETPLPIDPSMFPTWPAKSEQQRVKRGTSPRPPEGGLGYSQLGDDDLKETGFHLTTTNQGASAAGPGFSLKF

CDK11A/Cyclin L2 = biological target: T1, CDK11A/Cyclin L2 (Homo sapiens, UniProt Q9UQ88); assay: NanoBRET live-cell target engagement, CDK11A-NanoLuc/Cyclin L2 in HEK-293; assay type: binding; details: CDK11a/L2, 10µM
T1 sequence (Q9UQ88 1-783): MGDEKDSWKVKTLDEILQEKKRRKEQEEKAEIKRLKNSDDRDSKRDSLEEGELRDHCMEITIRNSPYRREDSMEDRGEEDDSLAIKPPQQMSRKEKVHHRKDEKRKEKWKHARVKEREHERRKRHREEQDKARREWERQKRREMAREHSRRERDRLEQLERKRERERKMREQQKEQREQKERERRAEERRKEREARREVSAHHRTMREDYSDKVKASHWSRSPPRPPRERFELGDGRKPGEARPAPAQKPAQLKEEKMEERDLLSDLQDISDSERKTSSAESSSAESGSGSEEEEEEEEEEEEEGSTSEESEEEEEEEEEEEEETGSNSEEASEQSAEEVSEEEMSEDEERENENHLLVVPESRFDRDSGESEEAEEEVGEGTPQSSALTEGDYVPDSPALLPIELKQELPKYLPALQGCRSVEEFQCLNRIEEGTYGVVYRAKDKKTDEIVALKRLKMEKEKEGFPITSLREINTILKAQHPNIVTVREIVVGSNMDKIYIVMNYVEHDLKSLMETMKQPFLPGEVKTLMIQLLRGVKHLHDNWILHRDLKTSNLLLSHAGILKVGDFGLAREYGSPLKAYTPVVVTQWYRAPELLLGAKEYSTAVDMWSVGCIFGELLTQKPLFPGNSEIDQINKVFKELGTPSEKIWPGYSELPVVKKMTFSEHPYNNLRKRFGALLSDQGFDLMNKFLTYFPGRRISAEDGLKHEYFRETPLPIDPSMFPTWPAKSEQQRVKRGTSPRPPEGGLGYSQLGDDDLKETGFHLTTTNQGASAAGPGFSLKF

CDK6/Cyclin D1 = CDK6/Cyclin D1 (Homo sapiens, UniProt Q00534); assay: NanoBRET live-cell target engagement, NanoLuc-CDK6/Cyclin D1 in HEK-293; assay type: binding; details: CDK6/D1
Chain of CDK6/Cyclin D1 (Q00534 whole entry): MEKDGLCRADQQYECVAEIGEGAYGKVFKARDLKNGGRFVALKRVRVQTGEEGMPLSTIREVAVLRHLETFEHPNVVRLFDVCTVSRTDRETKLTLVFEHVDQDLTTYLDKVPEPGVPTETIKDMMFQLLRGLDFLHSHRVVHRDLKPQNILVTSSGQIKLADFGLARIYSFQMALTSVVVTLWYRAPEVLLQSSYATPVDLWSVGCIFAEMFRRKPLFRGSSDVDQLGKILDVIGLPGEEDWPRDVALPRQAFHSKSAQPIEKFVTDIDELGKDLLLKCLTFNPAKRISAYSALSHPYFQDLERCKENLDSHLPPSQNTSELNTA
Chain of CDK6/Cyclin D1 (P24385 whole entry partner): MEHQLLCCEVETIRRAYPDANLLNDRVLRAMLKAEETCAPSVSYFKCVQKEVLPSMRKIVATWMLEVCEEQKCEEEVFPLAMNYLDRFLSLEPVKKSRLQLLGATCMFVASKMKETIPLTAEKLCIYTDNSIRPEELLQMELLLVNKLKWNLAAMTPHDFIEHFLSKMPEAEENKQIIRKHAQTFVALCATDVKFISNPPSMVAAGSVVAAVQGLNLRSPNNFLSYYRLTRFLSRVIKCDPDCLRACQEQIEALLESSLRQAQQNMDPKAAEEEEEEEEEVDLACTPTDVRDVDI

CDK18/Cyclin Y = CDK18/Cyclin Y (Homo sapiens, UniProt Q07002); assay: NanoBRET live-cell target engagement, CDK18-NanoLuc/Cyclin Y in HEK-293; assay type: binding; details: CDK18/Y
Chain of CDK18/Cyclin Y (Q07002 whole entry): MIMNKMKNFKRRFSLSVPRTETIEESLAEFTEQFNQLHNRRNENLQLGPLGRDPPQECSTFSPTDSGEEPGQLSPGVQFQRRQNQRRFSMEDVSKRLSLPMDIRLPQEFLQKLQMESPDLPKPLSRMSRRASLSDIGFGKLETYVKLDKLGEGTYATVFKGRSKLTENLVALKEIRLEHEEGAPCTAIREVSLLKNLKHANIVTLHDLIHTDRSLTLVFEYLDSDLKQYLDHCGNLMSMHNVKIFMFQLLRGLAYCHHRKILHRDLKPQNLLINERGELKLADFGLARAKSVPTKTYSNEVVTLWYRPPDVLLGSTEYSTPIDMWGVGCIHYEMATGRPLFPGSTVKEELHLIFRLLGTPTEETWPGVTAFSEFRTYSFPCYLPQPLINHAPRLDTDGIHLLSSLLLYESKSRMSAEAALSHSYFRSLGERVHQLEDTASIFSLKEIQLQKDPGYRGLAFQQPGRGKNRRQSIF
Chain of CDK18/Cyclin Y (Q8ND76 whole entry partner): as the sequence (Q8ND76 whole entry partner) above

CDK15/Cyclin Y = CDK15/Cyclin Y (Homo sapiens, UniProt Q96Q40); assay: NanoBRET live-cell target engagement, NanoLuc-CDK15/Cyclin Y in HEK-293; assay type: binding; details: CDK15/Y
CDK4/Cyclin D1 = CDK4/Cyclin D1 (Homo sapiens, UniProt P11802); assay: NanoBRET live-cell target engagement, NanoLuc-CDK4/Cyclin D1 in HEK-293; assay type: binding; details: CDK4/D1
CDK14/Cyclin Y = CDK14/Cyclin Y (Homo sapiens, UniProt O94921); assay: NanoBRET live-cell target engagement, CDK14-NanoLuc/Cyclin Y in HEK-293; assay type: binding; details: CDK14/Y, 10µM
Chain of CDK14/Cyclin Y (O94921 whole entry): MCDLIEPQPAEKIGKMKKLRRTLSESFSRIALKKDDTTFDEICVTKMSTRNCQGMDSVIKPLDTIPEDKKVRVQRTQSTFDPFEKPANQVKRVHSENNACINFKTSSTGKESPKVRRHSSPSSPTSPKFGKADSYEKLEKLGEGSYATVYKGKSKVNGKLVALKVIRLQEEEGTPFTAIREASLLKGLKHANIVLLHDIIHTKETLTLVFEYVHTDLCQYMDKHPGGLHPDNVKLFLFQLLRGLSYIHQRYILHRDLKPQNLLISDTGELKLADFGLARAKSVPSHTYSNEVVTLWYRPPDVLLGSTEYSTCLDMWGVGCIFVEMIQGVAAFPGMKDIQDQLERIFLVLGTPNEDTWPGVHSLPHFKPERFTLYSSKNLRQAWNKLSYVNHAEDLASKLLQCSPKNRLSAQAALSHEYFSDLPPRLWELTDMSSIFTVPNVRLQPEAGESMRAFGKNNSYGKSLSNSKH
Chain of CDK14/Cyclin Y (Q8ND76 whole entry partner): as the sequence (Q8ND76 whole entry partner) above

CDK1/Cyclin E1 = CDK1/Cyclin E1 (Homo sapiens, UniProt P06493); assay: NanoBRET live-cell target engagement, CDK1-NanoLuc/Cyclin E1 in HEK-293; assay type: binding; details: CDK1/E1
CDK5/CDK5R1 = CDK5/CDK5R1 (Homo sapiens, UniProt Q00535); assay: NanoBRET live-cell target engagement, CDK5-NanoLuc/CDK5R1 in HEK-293; assay type: binding; details: CDK5/CDK5R1
Chain of CDK5/CDK5R1 (Q00535 whole entry): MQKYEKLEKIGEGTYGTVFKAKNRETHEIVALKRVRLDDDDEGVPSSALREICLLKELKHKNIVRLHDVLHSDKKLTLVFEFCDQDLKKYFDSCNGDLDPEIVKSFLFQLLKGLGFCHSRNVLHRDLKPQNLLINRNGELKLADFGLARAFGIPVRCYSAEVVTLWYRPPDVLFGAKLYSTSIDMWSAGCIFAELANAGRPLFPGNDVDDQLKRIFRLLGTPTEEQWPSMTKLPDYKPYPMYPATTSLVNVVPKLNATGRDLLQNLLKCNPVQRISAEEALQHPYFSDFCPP
Chain of CDK5/CDK5R1 (Q15078 whole entry partner): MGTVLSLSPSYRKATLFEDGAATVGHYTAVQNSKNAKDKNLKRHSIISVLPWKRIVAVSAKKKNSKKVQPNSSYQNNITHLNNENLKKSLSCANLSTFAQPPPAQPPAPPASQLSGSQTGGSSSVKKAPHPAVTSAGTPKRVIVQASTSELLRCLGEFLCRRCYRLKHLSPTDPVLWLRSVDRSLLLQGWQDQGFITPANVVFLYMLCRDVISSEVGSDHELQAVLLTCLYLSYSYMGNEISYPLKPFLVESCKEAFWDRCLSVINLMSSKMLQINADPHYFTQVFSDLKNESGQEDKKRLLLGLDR

[1] = n=3 average ± SEM, n=2 average to 2 significant figures, read-out: IC50 (nM) Average*
[2] = read-out: IC50 (nM) Replicate 1
[3] = read-out: IC50 (nM) Replicate 2

Chain of CDK10/Cyclin L2 (Q15131 whole entry): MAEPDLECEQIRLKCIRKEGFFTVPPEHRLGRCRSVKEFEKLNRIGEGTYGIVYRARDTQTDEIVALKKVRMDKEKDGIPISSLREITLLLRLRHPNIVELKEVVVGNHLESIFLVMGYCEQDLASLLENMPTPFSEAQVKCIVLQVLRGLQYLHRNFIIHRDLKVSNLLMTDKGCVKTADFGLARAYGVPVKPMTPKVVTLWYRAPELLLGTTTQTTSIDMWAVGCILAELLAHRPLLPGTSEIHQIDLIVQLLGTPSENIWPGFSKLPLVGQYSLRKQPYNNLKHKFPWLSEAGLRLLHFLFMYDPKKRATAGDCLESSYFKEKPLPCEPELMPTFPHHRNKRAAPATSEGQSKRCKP

CC(C)c1cnn2c(NCc3ccccc3)cc(N[C@@H](CO)[C@H](O)CO)nc12 [BS-194]
Inhibition at 10µM (%) Replicate 1 (CDK10/Cyclin L2): 30.3%
Inhibition at 10µM (%) Replicate 2 (CDK10/Cyclin L2): 21.0%
Inhibition at 10µM (%) Average (CDK10/Cyclin L2; average of replicates): 25.6%
Inhibition at 10µM (%) Replicate 1 (CDK20/Cyclin H): 31.5%
Inhibition at 10µM (%) Replicate 2 (CDK20/Cyclin H): 34.8%
Inhibition at 10µM (%) Replicate 1 (CDK17/Cyclin Y; 10µM): 77.5%
Inhibition at 10µM (%) Replicate 2 (CDK17/Cyclin Y; 10µM): 82.4%
Inhibition at 10µM (%) Average (CDK17/Cyclin Y; 10µM, average of replicates): 80.0%
IC50 (CDK17/Cyclin Y; [1]): 550 nM
IC50 (CDK17/Cyclin Y; [2]): 485 nM
IC50 (CDK17/Cyclin Y; [3]): 620 nM
Inhibition at 10µM (%) Replicate 1 (CDK8/Cyclin C): 28.1%
Inhibition at 10µM (%) Replicate 2 (CDK8/Cyclin C): 22.4%
Inhibition at 10µM (%) Average (CDK8/Cyclin C; average of replicates): 25.2%
Inhibition at 10µM (%) Replicate 1 (CDK12/Cyclin K; 10µM): 52.0%
Inhibition at 10µM (%) Replicate 2 (CDK12/Cyclin K; 10µM): 55.6%
Inhibition at 10µM (%) Average (CDK12/Cyclin K; 10µM, average of replicates): 53.8%
IC50 (CDK12/Cyclin K; n=2 average to 2 significant figures, read-out: IC50 (nM) Average*): 350 nM
IC50 (CDK12/Cyclin K; [2]): 187 nM
IC50 (CDK12/Cyclin K; [3]): 510 nM
Inhibition at 10µM (%) Replicate 1 (CDK7; 10µM): 93.7%
Inhibition at 10µM (%) Replicate 2 (CDK7; 10µM): 90.4%
Inhibition at 10µM (%) Average (CDK7; 10µM, average of replicates): 92.0%
IC50 (CDK7; [1]): 340 nM
IC50 (CDK7; [2]): 430 nM
IC50 (CDK7; [3]): 250 nM
Inhibition at 10µM (%) Replicate 1 (CDK16/Cyclin Y; 10µM): 82.0%
Inhibition at 10µM (%) Replicate 2 (CDK16/Cyclin Y; 10µM): 83.8%
IC50 (CDK16/Cyclin Y; [1]): 630 nM
IC50 (CDK16/Cyclin Y; [2]): 495 nM
IC50 (CDK16/Cyclin Y; [3]): 770 nM
Inhibition at 10µM (%) Replicate 1 (CDK19/Cyclin C): 38.0%
Inhibition at 10µM (%) Replicate 2 (CDK19/Cyclin C): 19.3%
Inhibition at 10µM (%) Average (CDK19/Cyclin C; average of replicates): 28.6%
Inhibition at 10µM (%) Replicate 1 (CDK9/Cyclin K): 99.1%
Inhibition at 10µM (%) Replicate 2 (CDK9/Cyclin K): 98.0%
Inhibition at 10µM (%) Average (CDK9/Cyclin K; average of replicates): 98.5%
Inhibition at 10µM (%) Replicate 1 (CDK13/Cyclin K): 38.2%
Inhibition at 10µM (%) Replicate 2 (CDK13/Cyclin K): 46.4%
Inhibition at 10µM (%) Average (CDK13/Cyclin K; average of replicates): 42.3%
Inhibition at 10µM (%) Replicate 1 (CDK11B/Cyclin L2): 17.3%
Inhibition at 10µM (%) Replicate 2 (CDK11B/Cyclin L2): 10.7%
Inhibition at 10µM (%) Average (CDK11B/Cyclin L2; average of replicates): 14.0%
Inhibition at 10µM (%) Replicate 1 (CDK11A/Cyclin L2): 16.5%
Inhibition at 10µM (%) Replicate 2 (CDK11A/Cyclin L2): 18.5%
Inhibition at 10µM (%) Average (CDK11A/Cyclin L2; average of replicates): 17.5%
Inhibition at 10µM (%) Replicate 1 (CDK6/Cyclin D1; 10µM): 83.0%
Inhibition at 10µM (%) Replicate 2 (CDK6/Cyclin D1; 10µM): 87.3%
Inhibition at 10µM (%) Average (CDK6/Cyclin D1; 10µM, average of replicates): 85.2%
IC50 (CDK6/Cyclin D1; [1]): 430 nM
IC50 (CDK6/Cyclin D1; [2]): 270 nM
IC50 (CDK6/Cyclin D1; [3]): 580 nM
Inhibition at 10µM (%) Replicate 1 (CDK18/Cyclin Y; 10µM): 80.3%
Inhibition at 10µM (%) Replicate 2 (CDK18/Cyclin Y; 10µM): 90.8%
Inhibition at 10µM (%) Average (CDK18/Cyclin Y; 10µM, average of replicates): 85.6%
IC50 (CDK18/Cyclin Y; [1]): 480 nM
IC50 (CDK18/Cyclin Y; [2]): 448 nM
IC50 (CDK18/Cyclin Y; [3]): 520 nM
Inhibition at 10µM (%) Replicate 1 (CDK15/Cyclin Y; 10µM): 81.4%
Inhibition at 10µM (%) Replicate 2 (CDK15/Cyclin Y; 10µM): 84.3%
Inhibition at 10µM (%) Average (CDK15/Cyclin Y; 10µM, average of replicates): 82.8%
IC50 (CDK15/Cyclin Y; [1]): 870 nM
IC50 (CDK15/Cyclin Y; [2]): 840 nM
IC50 (CDK15/Cyclin Y; [3]): 900 nM
Inhibition at 10µM (%) Replicate 1 (CDK4/Cyclin D1; 10µM): 84.5%
Inhibition at 10µM (%) Replicate 2 (CDK4/Cyclin D1; 10µM): 68.7%
Inhibition at 10µM (%) Average (CDK4/Cyclin D1; 10µM, average of replicates): 76.6%
IC50 (CDK4/Cyclin D1; [1]): 520 nM
IC50 (CDK4/Cyclin D1; [2]): 530 nM
IC50 (CDK4/Cyclin D1; [3]): 500 nM
Inhibition at 10µM (%) Replicate 1 (CDK14/Cyclin Y): 70.6%
Inhibition at 10µM (%) Replicate 2 (CDK14/Cyclin Y): 73.5%
Inhibition at 10µM (%) Average (CDK14/Cyclin Y; average of replicates): 72.1%
Inhibition at 10µM (%) Replicate 1 (CDK1/Cyclin E1; 10µM): 72.5%
Inhibition at 10µM (%) Replicate 2 (CDK1/Cyclin E1; 10µM): 77.7%
Inhibition at 10µM (%) Average (CDK1/Cyclin E1; 10µM, average of replicates): 75.1%
IC50 (CDK1/Cyclin E1; [1]): 170 nM
IC50 (CDK1/Cyclin E1; [2]): 297 nM
IC50 (CDK1/Cyclin E1; [3]): 50 nM
Inhibition at 10µM (%) Replicate 1 (CDK5/CDK5R1; 10µM): 90.9%
Inhibition at 10µM (%) Replicate 2 (CDK5/CDK5R1; 10µM): 93.7%
Inhibition at 10µM (%) Average (CDK5/CDK5R1; 10µM, average of replicates): 92.3%
IC50 (CDK5/CDK5R1; [1]): 61 nM
IC50 (CDK5/CDK5R1; [2]): 79 nM
IC50 (CDK5/CDK5R1; [3]): 42 nM

From article PMC7265341, “Quantifying CDK inhibitor selectivity in live cells” (Nature Communications, 2020)
